{
  "source": "patent US20120178625A1",
  "about": "“METHOD FOR REDUCING PISTILLATE FLOWER ABORTION IN PLANTS” (BASF SE, priority 2009, published 2012)",
  "tested_on": "walnut (Juglans regia cv. Serr)",
  "assay": "Control of PFA (pistillate flower abortion) field trial in a walnut orchard, Graneros, Chile (2008/2009)",
  "format": "in vivo",
  "details": "water 1500 l/ha",
  "description": "In the terms of the present invention, “reducing pistillate flower abortion in plants” refers to a reduction in the level of PFA. This reduction can be measured by determining a) the fruit set (%), b) the number of growing fruits (%) and/or c) the remaining fruits at harvest (%) (fruit yield). The higher the percentage of fruit set, growing fruits and/or remaining fruits at harvest, the lower the respective pistillate flower abortion. The trial was run in a walnut orchard (Juglans regia cv. Serr) located in Graneros, Chile in the year 2008. Trial design was completely randomized with 3 replicates per treatment. Each replicate had identified branches completing 100 female flowers. Remaining fruit were counted after fruit set and at harvest time. […] [table] […] As a consequence PFA was quite high, influencing adversely yields in orchard where no ethylene control was done.",
  "key": {"[1]": {"details": "Treatment No. 2: 0.5 l/ha, 2 applications (10% and 30% of pistillates flowering)"}, "[2]": {"details": "Treatment No. 5: 0.7 l/ha + 0.015% Break-Thru, 3 applications (10%, 30% and 50% of pistillates flowering)"}},
  "data": [
    {"smiles": "COC(=O)N(OC)c1ccccc1COc1ccn(-c2ccc(Cl)cc2)n1", "note": "[Pyraclostrobin, pyraclostrobin]", "values": [
      {"measurement": "Fruit set (%) (Oct. 23, 2008)", "setting": "[1]", "value": 54.0, "unit": "%"},
      {"measurement": "Increase (%) compared to UTC, fruit set", "setting": "[1]", "value": "+108%"},
      {"measurement": "Increase (%) compared to UTC, remaining fruits at harvest", "setting": "[1]", "value": "+106%"},
      {"measurement": "Increase (%) compared to UTC, small growing fruits", "setting": "[1]", "value": "+104%"},
      {"measurement": "Remaining fruits at harvest (%) (Mar. 03, 2009)", "setting": "[1]", "value": 46.0, "unit": "%"},
      {"measurement": "Small growing fruits (%) (Nov. 10, 2008)", "setting": "[1]", "value": 46.3, "unit": "%"},
      {"measurement": "Increase (%) compared to UTC, fruit set", "setting": "[2]", "value": "+165%"},
      {"measurement": "Increase (%) compared to UTC, remaining fruits at harvest", "setting": "[2]", "value": "+200%"},
      {"measurement": "Increase (%) compared to UTC, small growing fruits", "setting": "[2]", "value": "+201%"}
    ]}
  ]
}
